Experimental data: patent US11732048B2, “Anti-axl antagonistic antibodies” (BERGEN TEKNOLOGIOVERFØRING AS, priority 2016, dated 2023)
pEC50: −log10 of the molar value. Where two headings read alike, the source gives them in different places.

Test system: MDA-MB-231 cells
Experiment: Tumour cell killing using antibody-Saporin conjugates (XTT/PMS viability)
Format: cell-based, human
Method: For generation of immunotoxin, the chimeric MAb was non-covalently coupled to a plant toxin Saporin using FabFc-ZAP human conjugate (4.5 nM final concentration) (Advanced Targeting Systems, Cat. no. IT-65). The effect of chAb-Saporin internalization on tumour cell viability was tested using Axl-positive tumour cell line MDA-MB-231 (human triple negative breast carcinoma). Eight hundred cells were seeded per well in 96-well plates in DMEM/F-12 media supplied with 10% FBS, L-glutamine (4 mM), streptomycin (5 μg/ml) and penicillin (5 U/ml) and allowed to attach for 16 hours. The cells were incubated with different dilutions of immunotoxin chAb-Saporin for 72 hrs. The viability of the cells was determined by performing an XTT/PMS assay using a CLARIOstar® microplate reader (BMG LABTECH)
Unconjugated Saporin and an isotype control antibody (human IgG1) coupled to Saporin (control SAP) were used as negative controls.
Tumour cell killing using antibody-Saporin conjugates performed as described in Example 20. A comparison of two variants of humanised 10G5 and YW327.6S2 was performed.

In the case of Saporin, the pEC50 (Table 4, antibody coupled to Saporin via FabFc-ZAP, MDA-MB-231, 72 hrs, read-out: EC50 (effective concentration leading to 50% cell killing)) was 7.00 and the pEC50 (Table 5, antibody-Saporin conjugates as in Example 20, MDA-MB-231, read-out: EC50 (cell killing)) was 6.61.
